We go through ten compounds from patent US20090163586A1, “Bis-(Sulfonylamino) Derivatives in Therapy 205” (AstraZeneca AB, priority 2007, published 2009).

The test addresses T1, human mPGES-1 (Homo sapiens, UniProt O14684).
T1 sequence (O14684 1-152): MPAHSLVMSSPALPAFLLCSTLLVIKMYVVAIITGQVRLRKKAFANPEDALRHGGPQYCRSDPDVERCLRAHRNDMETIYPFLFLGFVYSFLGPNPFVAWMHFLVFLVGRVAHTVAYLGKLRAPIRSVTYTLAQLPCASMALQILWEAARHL
The test can be described thus: Microsomal prostaglandin E synthase biochemical assay. As to conditions: microsome preparation containing human mPGES-1; PGH2 10.8 μM, GSH 2.5 mM, pH 6.8; PGE2 by HTRF; average of at least n=2. A digest of the protocol: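 Human mPGES-1 microsomes at 2 μg/mL were pre-incubated 15 min with compound (60 μM to 0.002 μM) in 50 mM potassium phosphate pH 6.8 with 2.5 mM GSH. The reaction was started with 10.8 μM PGH2 and stopped after 1 minute with acidic ferric chloride/citrate. PGE2 was quantified by HTRF; IC50 is the mean of at least 2 runs.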
(In general: TR-FRET usually uses a lanthanide donor and a delayed reading to cut background.)

Molecules are shown by their SMILES.

The IC50 is the concentration needed to halve the response being measured. Higher therefore signals lower potency. As for `NS(=O)(=O)c1cc(F)cc(F)c1NS(=O)(=O)CCc1ccc(Cl)c(Cl)c1` [Example 229, 2-(2-(3,4-Dichlorophenyl)ethylsulfonamido)-3,5-difluorobenzenesulfonamide], half-maximal inhibition (IC50) required 5.5 µM.
`COc1cc(NS(=O)(=O)c2cccc(Cl)c2Cl)c(S(N)(=O)=O)cc1F` [Example 230, 2,3-Dichloro-N-(4-fluoro-5-methoxy-2-sulfamoylphenyl)benzenesulfonamide]: the IC50 was determined as 6.1 µM.
As for `NS(=O)(=O)c1ccc(Cl)cc1NS(=O)(=O)CCc1ccc(Cl)c(Cl)c1` [Example 231, 4-Chloro-2-(2-(3,4-dichlorophenyl)ethylsulfonamido)benzenesulfonamid], the figure is 0.13 µM.
Consider `NS(=O)(=O)c1cc(Cl)c(F)cc1NS(=O)(=O)CCc1ccc(Cl)cc1` [Example 232, 5-Chloro-2-(2-(4-chlorophenyl)ethylsulfonamido)-4-fluorobenzenesulfonamide], for which 0.87 µM corresponded to half-maximal inhibition (IC50).
As to `NS(=O)(=O)c1cc(Cl)c(F)cc1NS(=O)(=O)CCc1ccc(Cl)c(Cl)c1` [Example 233, 5-Chloro-2-(2-(3,4-dichlorophenyl)ethylsulfonamido)-4-fluorobenzenesulfonamide], the IC50 came out at 0.15 µM.
As for `NS(=O)(=O)c1c(NS(=O)(=O)CCc2ccc(-c3ccco3)cc2)ccc2c1CCC2` [Example 234, 5-(2-(4-(Furan-2-yl)phenyl)ethylsulfonamido)-2,3-dihydro-1H-indene-4-sulfonamide], the figure is 6.2 µM; as for `NS(=O)(=O)c1cc2c(cc1NS(=O)(=O)CCc1ccc(-c3ccco3)cc1)CCC2` [Example 235, 6-(2-(4-(Furan-2-yl)phenyl)ethylsulfonamido)-2,3-dihydro-1H-indene-5-sulfonamid], 6.2 µM.
As for `NS(=O)(=O)c1c(NS(=O)(=O)CCc2ccc(Cl)c(Cl)c2)ccc2c1CCC2` [Example 236, 5-(2-(3,4-Dichlorophenyl)ethylsulfonamido)-2,3-dihydro-1H-indene-4-sulfonamide], the figure is 4.6 µM.
For the compound `CNS(=O)(=O)c1ccccc1NS(=O)(=O)c1cccc(-c2ccc(Cl)c(Cl)c2)c1` [Example 239, 2-[[3-(3,4-Dichlorophenyl)phenyl]sulfonylamino]-N-methyl-benzenesulfonamide], half-maximal inhibition (IC50) was put at 6.06 µM.
In turn, `NS(=O)(=O)c1ccccc1NS(=O)(=O)CCc1ccc(C#Cc2ccc(C(F)(F)F)cc2)nc1` [Example 240, 2-(2-(6-((4-(Trifluoromethyl)phenyl)ethynyl)pyridin-3-yl)ethylsulfonamido)benzenesulfonamide] showed an IC50 of 0.031 µM.
